# Data from patent US20050171342A1, “Conjugates of biologically active compounds, methods for their preparation and use, formulation and pharmaceutical applications thereof” (priority 2002, published 2005).
# Read-outs that look alike come from different tables or passages of the source.
# Assays:
# E. coli (DH5α) = assay: Testing of antibiotic activity (TC50, antibiotic dilution assay, turbidity); type: cell-based; settings: concentration that inhibits 50% of the growth
# Protocol: The TC50 or MIC procedure for antibiotic sensitivity testing involves an antibiotic dilution assay, which can be performed in microtitre plates. A series of twofold dilutions of each antibiotic are made in the wells, and then all wells are inoculated with a standard amount of the same test organism. After incubation, growth in the presence of the various antibiotics is observed by measuring turbidity.
# Bacteria: B. pumilus and E. coli (DH5α)
# Bacterial cultures are initiated from the plates for 2 to 3 weeks. After this time period bacteria are streaked out on new plates from the backups strored at −80° C. Due to the lack of resistance of the bacteria, new cultures are not to be initiated from an old plate or any liquid cultures derived from old plates. • Growth medium (GM)(per liter): 10 g Bacto-tryptone, 5 g Bacto-yeast extract, 6 g HEPES (25 mM), 5.4 g NaCl, pH 7.3 • Compound stocks 10 or 100 mM in DMSO stored at −20° C. Procedure • 1. Grow B. pumilus from an LB agar plate in a flask (max. 10% volume) up to about 50 ml in growth medium (GM) • 2. Dilute overnight suspension 1:10 in GM • 3. Determine OD600 of diluted bacterial suspension • 4. Dilute bacterial suspension in GM to an OD600 of 0.03-0.04. (6 ml/plate) • 5. Add 200 μl GM to the outer wells (Row A, Row H, Column 1, Column 12) • 6. Add 100 μl GM to each well starting from C2, row 3. • 7. Controls: Wells B2-B4 growth control. Wells B6-B8 blank. Row C growth inhibition control. • 7.1. To wells B2-B4 add: […], 4 μl DMSO, and 100 μl bacterial suspension adjusted to an OD600 of 0.03-0.04. • 7.2. To wells B6-B8 add: 196 μl GM and 4 μl DMSO • 7.3. Dilute a 10 mM COMPOUND 43 (positive control) stock to 800 μM (120 μl/plate) in GM. Add 100 μl of 800 μM COMPOUND 43 solution to well C2. • 8. Samples • 8.1. Dilute the 10 or 100 mM stock solutions to 800 μM (250 μl/plate) in GM. • 8.2. Add 100 μl of 800 μM sample in duplicates to wells D2/E2 resp. F2/G2. • 8.3. 2-fold serial dilution of all samples and Azithromycin • 8.3.1. […]
# 11. Determine OD600 on plate reader.
# lymphocytes = assay: Proliferation assay (BrdU incorporation, phytohemagglutanin-stimulated lymphocytes); type: cell-based, mammalian; settings: for IC50: Lymphocyte; for Ratio (2 h:72 h): ratio of IC50 at 2 h to IC50 at 72 h, lower = better uptake and drug release
# Description: Assay to determine the in vitro rate of, for example, lymphocyte proliferation. Lymphocytes are purified out of ant coagulated (CPDA, citrate or heparin) mammalian blood using the Lymphoprep™ system (supplier). Purified cells are counted using a hemocytometer following Trypan Blue staining, and a cell concentration of 1×10^6 cells/ml established in RPMi 1640 medium with 10% FCS and antibiotics as required (all from Biochrome). Following the addition of a cell proliferation stimulant, for example phytohemagglutanin (Sigma) at, for example an end concentration of 5 μg/ml, the cells are incubated with different concentrations of the to be investigated compound in 100 μl end volume in a 96-well microtiter plate in an incubator (37° C., 5% CO2, 95% humidity) for 72 h. Cell proliferation is quantified following BrdU incorporation for 16 h by ELISA and subsequent colorimetric development (Cell Proliferation ELISA BrdU (colorimetric) kit from Roche Diagnostics). The IC50 (μM) values are then calculated, and used to compare compound efficacy. To determine the influence of the T-L-C modification on in vitro cellular drug uptake and pharmacology, the above assay is additionally modified and an additional “wash” step included. In addition to running the assay for 72 h with the compounds to be tested, the assay is also run for just 2 h, then compound is washed away in three serial washing steps using 200 μl of medium at each step, and the cells subsequently incubated for a further 70 h. […] The lower the number, the better the uptake and drug release from the T-L-C in the cells (see results in Table 4 for examples), and improvement over mycophenolic acid.
# [1] = tested on: white blood cells (immune cells: neutrophils, monocytes, lymphocytes) versus erythrocytes; assay: Immune cell partition / concentrative uptake into white blood cells (immune selectivity ratio); type: in vitro ADME, mammalian
# Protocol: Freshly drawn heparinised blood or buffy coat preparations are used for the determination of immune cell partition ratios. Buffy coat preparations are preferred. These may be obtained from donor blood by simple centrifugation of whole blood (4795 g for 10 minutes). Following centrifugation, plasma is collected from the surface, after which immune cells are expressed from the donor bags along with the erythrocytes lying immediately below the leukocyte layer. This ensures high yields and a sufficient population of erythrocytes for partition. 5 ml of the resulting cell suspension are dispensed into T25 culture flasks. Substrates are added to a final concentration between 1 and 10 μM and the suspensions incubated at 37° C., in a 5% CO2 atmosphere. For analysis of uptake kinetics, samples are withdrawn at 0, 2, 5, 10, 30, 60, 90, 180, or 240 min after substrate addition. For screening purposes, samples are taken at 0 and 120 minutes.
# Cell fractions were prepared using density gradient centrifugation. […]
# Uptake of fluorescent compounds is monitored using fluorescence microscopy. Excitation and emission wavelengths depend of the fluorescence label in use. […]
# HeLa or JURKAT = assay: Cytotoxicity assay (Alamar Blue) with guanosine rescue, cell-based IMPDH assay
# Protocol: HeLa cells (DSMZ, ACC 57) and Jurkat cells (DSMZ, ACC 282) in exponential growth phase are exposed for 3 days to test compounds. The number of surviving cells is then determined by the Alamar Blue assay (Serotec Inc.). This assay incorporates a fluorometric growth indicator based on detection of metabolic activity. Specifically, the system incorporates an oxidation-reduction indicator that fluoresces in response to chemical reduction of the growth medium resulting from cell growth. As cells grow in culture, innate metabolic activity results in a chemical reduction of the immediate surrounding environment. Continued growth maintains a reduced environment while inhibition of growth maintains an oxidized environment. […] Fluorescence is monitored at 560 nm (Exc.) and 590 nm Em.
# HeLa cells (1×10^3) or JURKAT cells (1×10^3) are plated in 100 μl MEM medium (with Earle's salt; Biochrom KG) containing 10% FBS, 2 mM L-glutamine, and non-essential animo acids in 96-well plates and incubated at 37° C. and 5% CO2 atmosphere. […] The fluorescence is then measured as described above and the LD50 is determined based on a sigmoidal dose response regression. […] Any toxicity still detected can then be ascribed either to other biological effects of the of T-L-C conjugate of mycophenolic acid, or is due to the very high intracellular concentration of mycophenolic acid, following concentrative uptake into the cell.
# [2] = read-out: IC50 (μM) at 2 h, 2 h incubation, compound washed away, further 70 h incubation
# [3] = 72 h incubation with compound, read-out: IC50 (μM) at 72 h
Structure (SMILES),IC50 (lymphocytes; [2]),IC50 (lymphocytes; [3]),Ratio (2 h:72 h) (lymphocytes),further results
CC[C@H]1OC(=O)[C@H](C)C(=O)[C@H](C)[C@@H](O[C@@H]2O[C@H](C)CC(N(C)C)[C@H]2O)[C@](C)(O)C[C@@H](C)CN(C)[C@H](C)[C@@H](O)[C@]1(C)O (stereo partly shown) [Compound 40],,,,TC50 in E. coli (E. coli (DH5α)): >50 µM
CCOC(=O)CC/C(C)=C/Cc1c(OC)c(C)c2c(c1OC(=O)CCC(=O)O[C@@H]1C(N(C)C)C[C@@H](C)O[C@H]1O[C@@H]1[C@@H](C)[C@H](O[C@H]3C[C@@](C)(OC)[C@@H](O)[C@H](C)O3)[C@@H](C)C(=O)O[C@H](CC)[C@@](C)(O)[C@H](O)[C@@H](C)N(C)C[C@H](C)C[C@@]1(C)O)C(=O)OC2 (stereo partly shown) [Compound 69],2.66 µM,1.4 µM,1.9,
COc1c(C)c2c(c(O)c1C/C=C(\C)CCC(=O)OC(COCCCCOCC(CN1CCOCC1)OC(=O)CC/C(C)=C/Cc1c(O)c3c(c(C)c1OC)COC3=O)CN1CCOCC1)C(=O)OC2 (stereo not shown) [Compound 81],1.78 µM,1.12 µM,1.6,
"CC[C@H]1OC(=O)[C@H](C)[C@@H](O[C@H]2C[C@@](C)(OC)[C@@H](O)[C@H](C)O2)[C@H](C)[C@@H](O[C@@H]2O[C@H](C)C[C@H](N(C)C)[C@H]2O)[C@](C)(O)C[C@@H](C)CN(C)[C@H](C)[C@@H](O)[C@]1(C)O [Compound 43, 9a-aza-9a-methyl-9-deoxo-9a-homoerythromycin A, reference compound]",,,,TC50 in E. coli (E. coli (DH5α)): 2.3 µM
COc1cc(C)c(/C(=C\C(C)=O)CC(N)C(=O)O)cc1OC (stereo not shown) [Compound 4],,,,"uptake (speed) ([1]; uptake into immune cells, images during course of uptake): rapid"
"COc1c(C)c2c(c(O)c1C/C=C(\C)CCC(=O)OCCN1CCOCC1)C(=O)OC2 [Mycophenolate mofetil, reference compound]",1.5 µM,0.33 µM,4.5,
CC[C@H]1OC(=O)[C@H](C)[C@@H](O)[C@H](C)[C@@H](O[C@@H]2O[C@H](C)C[C@@H](N(C)CCOC(=O)CC/C(C)=C/Cc3c(O)c4c(c(C)c3OC)COC4=O)[C@@H]2N(C)C)[C@](C)(O)C[C@@H](C)CN(C)[C@H](C)[C@@H](O)[C@]1(C)O [Compound 74],3.2 µM,2.2 µM,1.45,
CC[C@H]1OC(=O)[C@H](C)[C@@H](OC2C[C@@](C)(OC)[C@@H](O)[C@H](C)O2)[C@H](C)[C@@H](OC2O[C@H](C)C[C@H](N(C)C)[C@H]2O)[C@](C)(O)C[C@@H](C)/C(=N/OCc2cc(=O)oc3cc(OC)c(OC)cc23)[C@H](C)[C@@H](O)[C@]1(C)O (stereo partly shown) [Compound 3],,,,"intracellular distribution ([1]; polymorphonuclear cells, fluorescent image (FIG. 3)): even distribution with some concentration near the nucleus"
CC[C@H]1OC(=O)[C@H](C)[C@@H](O[C@H]2C[C@@](C)(OC)[C@@H](O)[C@H](C)O2)[C@H](C)[C@@H](O[C@@H]2O[C@H](C)C[C@@H](OC(=O)CC/C(C)=C/Cc3c(O)c4c(c(C)c3OC)COC4=O)[C@@H]2N2CCOCC2)[C@](C)(O)C[C@@H](C)CN(C)[C@H](C)[C@@H](O)[C@]1(C)O [Compound 80],1.41 µM,0.4 µM,3.53,
CC[C@H]1OC(=O)[C@H](C)C(=O)[C@H](C)[C@@H](O[C@@H]2O[C@H](C)C[C@H](N(C)C)[C@H]2OC(=O)CC/C(C)=C/Cc2c(O)c3c(c(C)c2OC)COC3=O)[C@](C)(O)C[C@@H](C)CN(C)[C@H](C)[C@@H](O)[C@]1(C)O [Compound 79],3.16 µM,1.2 µM,2.63,
CC[C@H]1OC(=O)[C@H](C)[C@@H](O[C@H]2C[C@@](C)(OC)[C@@H](O)[C@H](C)O2)[C@H](C)[C@@H](O[C@@H]2O[C@H](C)CC(N(C)C(=O)CN(C)CCO)[C@H]2O)[C@](C)(O)C[C@@H](C)CN(C)[C@H](C)[C@@H](O)[C@]1(C)O (stereo partly shown) [Compound 45],,,,TC50 in E. coli (E. coli (DH5α)): >50 µM
"COc1c(C)c2c(c(O)c1C/C=C(\C)CCC(=O)O)C(=O)OC2 [Mycophenolic acid, reference compound]",2.5 µM,0.54 µM,4.63,"effect in the presence of guanosine (HeLa or JURKAT; 50 μM guanosine): completely removed; IC50 (HeLa or JURKAT; normal culture conditions, HeLa or JURKAT): < 2 µM"
